Reference: patent US20260335472A1, “MULTIFUNCTIONAL COMPOUND CORE FOR ACTIVE AGENTS AND USES THEREOF” (THE UNIVERSITY OF NORTH CAROLINA AT CHAPEL HILL, priority 2023, published 2026)

Assays:
PC3-PSMA model = assay: PET scan imaging, tumor uptake in rodents; format: in vivo, mouse
tumor [1] = assay: Imaging, tumor uptake in non-human primate models; format: in vivo; settings: non-human primate (NHP) models, times higher than PSMA-617
Method: (§1) Indeed, SGs uptake of ^64Cu-NOTA-UNC-PSMA2 is only 1/10th of ^64Cu-PSMA-617 at 24 h post-injection in the NHP study (FIG. 1, panel B).

[2] = PET scan imaging, salivary gland uptake in non-human primate; format: in vivo; settings: 24 hours post injection, relative to 64Cu-PSMA-617, FIG. 1 panel B
Method: as §1

[3] = SPECT/CT imaging, SG uptake in rodent models; format: in vivo
[4] = SPECT/CT imaging, gland uptake in a human subject; format: in vivo
tumor [5] = assay: PET scan imaging, tumor uptake of bifunctional (Sar cage) core compound; format: in vivo; settings: mouse, FIG. 5
tumor [6] = assay: PET scan imaging of 68Ga-PSMA-617 tumor uptake; format: in vivo; settings: rodent models, PET scan image of a mouse, FIG. 2 panel A

**Q.** With O=C(O)CC[C@H](NC(=O)N[C@@H](CCCCNC(=O)[C@H](Cc1ccc2ccccc2c1)NC(=O)C1CCC(CNC(=O)CSCCS(=O)(=O)CCOCCn2c(=O)n(CCOCCS(=O)(=O)CCSCC(=O)NC[C@H]3CC[C@H](C(=O)N[C@@H](Cc4ccc5ccccc5c4)C(=O)NCCCC[C@H](NC(=O)N[C@@H](CCC(=O)O)C(=O)O)C(=O)O)CC3)c(=O)n(CCOCCS(=O)(=O)CCSCC(=O)Nc3ccc(CC4CN(CC(=O)O)CCN(CC(=O)O)CCN4CC(=O)O)cc3)c2=O)CC1)C(=O)O)C(=O)O (stereo partly shown) [^64Cu-NOTA-UNC-PSMA2, metal not drawn] as the molecule, how does the “distribution (in words)” value (PC3-PSMA model; 24 and 48 h post injection, FIG. 1 panel A) read?
**A.** The value was “persistent as only the tumor demonstrated prominent compound uptake”.

**Q.** What about the “tumor uptake (in words)” value (PC3-PSMA model; mouse, PC3-PSMA model, PET scan image, FIG. 1 panel A) of the same molecule?
**A.** Its value is “high and persistent tumor uptake”.

**Q.** What about the “tumor uptake compared to PSMA-617” value (PC3-PSMA model; rodent models, times higher than PSMA-617) of the same molecule?
**A.** Its value is 2-3 times.

**Q.** And the “tumor uptake compared to PSMA-617” value (tumor [1])?
**A.** The value was 2-3 times.

**Q.** What about the “SG uptake relative to 64Cu-PSMA-617” value [2] of the same molecule?
**A.** Its value is 1/10.

**Q.** With O=C(O)CC[C@H](NC(=O)N[C@@H](CCCCNC(=O)[C@H](Cc1ccc2ccccc2c1)NC(=O)[C@H]1CC[C@H](CNC(=O)CN2CCN(CC(=O)O)CCN(CC(=O)O)CCN(CC(=O)O)CC2)CC1)C(=O)O)C(=O)O.[Lu+3] [^177Lu-PSMA-617] as the molecule, how does the “SG uptake (in words)” value [3] read?
**A.** The value was “prominent SG uptake”.

**Q.** And the “SG uptake (in words)” value ([4]; SPECT/CT imaging)?
**A.** The value was “prominent SG uptake”.

**Q.** And the “glands uptake (in words)” value ([4]; SPECT/CT, 24 hours post injection, FIG. 2 panel B)?
**A.** The value was “high glands uptake”.

**Q.** With N#CC1CCCN1C(=O)CNC(=O)c1ccnc2ccc(OCCCN3CCN(C(=O)CCOCCOCCNC(=O)NC45CNCCNCC(NC(=O)NCCOCCOCCC(=O)N6CCN(CCCOc7ccc8nccc(C(=O)NCC(=O)N9CCCC9C#N)c8c7)CC6)(CNCCNC4)CNCCNC5)CC3)cc12 (stereo not shown) as the molecule, how does the “uptake into a tumor (in words)” value (tumor [5]) read?
**A.** Its value is “Uptake of this compound into a tumor”.

**Q.** For O=C(O)CC[C@H](NC(=O)N[C@@H](CCCCNC(=O)[C@H](Cc1ccc2ccccc2c1)NC(=O)[C@H]1CC[C@H](CNC(=O)CN2CCN(CC(=O)O)CCN(CC(=O)O)CCN(CC(=O)O)CC2)CC1)C(=O)O)C(=O)O.[Ga+3] [^68Ga-PSMA-617], which “tumor uptake profile (in words)” value (tumor [6]) is on record?
**A.** The value was “clean tumor uptake profile”.
